In the assay the target is Protein kinase C (PKC) (Homo sapiens) (UniProt O94806+P41743+P17252+P05129+Q05655+P05771+Q05513+Q02156+P24723+Q15139+Q04759). In words: Activation of PKC in human 786-0 cells at 1 uM. Type of assay: cell-based.

The source made the active and inactive calls. The rule behind the calls is not given here.

As for `CC(C)[C@@]12C[C@@H](OC(=O)CO)[C@@](C)(O1)[C@@H]1CC[C@@H](C)[C@H]1[C@@H]2OC(=O)/C(Cl)=C/c1ccccc1`, the outcome was Active.
For the molecule `CC/C(C)=C/C(=O)O[C@@H]1[C@H](C)C[C@H]2O[C@]1(O)[C@@H](O)[C@@]1(C)CC[C@H](O1)C(C)(C)/C=C/[C@H](C)C2=O`, the result was Active.

These data come from ChEMBL document CHEMBL3804761, “Synthesis of a stable and orally bioavailable englerin analogue” (Bioorg Med Chem Lett, 2016).
